# Laboratory results reported in patent US20030105121A1, “Method of preventing lipodystrophy syndrome or reversing a pre-existing syndrome in HIV-infected patients being treated with antiretroviral agents” (priority 1999, published 2003).
# Entries after “also recorded” stand apart in the source; their conditions may differ.
# Experiments:
# [1] = human, in vivo
# Description: (§1) Because individual examples of treatment histories are of little value in discerning the effectiveness of a given treatment for HIV/AIDS infections, and especially effectiveness in reducing the likelihood of developing a highly variable side effect such as lipodystrophy, due among other things to wide differences in the initial extent of the infection as well as in the response of any given individual, a group of 85 different cases will be evaluated as a group in the following discussion. This number is believed to be a sufficiently large statistical sample to permit a reasonable judgment to be made of the effectiveness of the treatment of this invention.
# The medication status of the group at the time of initiation of PI treatment was as follows: Due to historical circumstances, i.e. the predilection in view of the earlier patent of the applicant to treating HIV/AIDS patients with naltrexone, all individuals of the group were already receiving naltrexone at the low dosage level. Based on blood count of […] lymphocytes, individual clinical history and personal patient preference, 60 had already been receiving, or were started on, lamivudine (NA) while 49 of the 65 were also receiving zidovudine (NA) and 4 of the 69 were receiving a combination of lamivudine and stavovudine, bearing in mind that the NA group of antivirals had been available for the longest time. […] Patients already on any of the NA agents, as just specified, were continued on this treatment during the study. The remaining 25 were receiving no medications (other than naltrexone) at the start of the study.
# [2] = tested on: lipodystrophy; experiment: Case histories (Examples a-g): LDN treatment of pre-existing lipodystrophy; format: in vivo, human; settings: for serum cholesterol after resuming naltrexone: Example a nine months (from 270), Example d 12 months (from 360)
# Description: One will have noted that the above case experience was entirely focused on limiting the risk of patients who were at the time free of lipodystrophy symptoms developing such symptoms during their antiretroviral therapy. This is explained by the fact that due to historical circumstances, i.e. the only recent introduction of antiretroviral therapy, the patients in this group were all being treated with naltrexone as described before being exposed to antiretroviral therapy. […] This was not anticipated and is considered to be a quite surprising finding.
# [3] = Long experience with low dose naltrexone: side effects; format: in vivo, human
# Experimental: Long experience has shown the perhaps three percent (3%) of patients receiving the drug at a 4.5 mg. dosage per day may suffer sleep disturbance lasting more than two or three days. Where this has been observed, reduction of the dosage to 3.0 mg. generally returns the sleep pattern to normalcy.
# [4] = tested on: HIV; experiment: Experience with low dose naltrexone treatment of HIV; format: in vivo, human; settings: low dose naltrexone alone
# Description: I have already disclosed in U.S. Pat. No. 4,888,346, issued Dec. 19, 1989, as a continuation of Ser. No. 06/916,180, filed Oct. 7, 1986, the administration of an essentially pure opiate receptor antagonist at a low dose level to patients suffering from acquired immune deficiency syndrome (or AIDS) in any of its known states, including AIDS-related complex. For this treatment, the amount of the essentially pure opiate receptor antagonist was required to be at a quite low level corresponding in results to those obtained by the administration of Naltrexone at a dosage level of from 1.0 mg. to 10 mg., preferably at a dosage level of 1.0 mg. to about 5 mg., and most preferably up to about 3.0 mg, all per day. At dosage levels above about 10 mg. per day, not only were the desired therapeutic results not obtained but the effect of the treatment appeared to be negative in acerbating the disease.
# [5] = tested on: HIV; format: in vivo; settings: four continuously undetectable patients, last six months of the study
# Description: as §1
# The medication status of the group at the time of initiation of PI treatment was as follows: Due to historical circumstances, i.e. the predilection in view of the earlier patent of the applicant to treating HIV/AIDS patients with naltrexone, all individuals of the group were already receiving naltrexone at the low dosage level. Based on blood count of […] lymphocytes, individual clinical history and personal patient preference, 60 had already been receiving, or were started on, lamivudine (NA) while 49 of the 65 were also receiving zidovudine (NA) and 4 of the 69 were receiving a combination of lamivudine and stavovudine, bearing in mind that the NA group of antivirals had been available for the longest time. […]
# [6] = tested on: lipodystrophy syndrome; settings: in vivo; cited from earlier work
# [7] = 3.0 mg qhs added to ARV, single cases
# [8] = 3.0 mg qhs added to ARV, single cases, listed as LDN
structure (smiles),measurement,setting,value
CC(C)(C)NC(=O)[C@@H]1CN(Cc2cccnc2)CCN1C[C@@H](O)C[C@@H](Cc1ccccc1)C(=O)N[C@H]1c2ccccc2C[C@H]1O [indinavir],persistent side effects,[1],mild nausea
"O=C1CC[C@@]2(O)[C@H]3Cc4ccc(O)c5c4[C@@]2(CCN3CC2CC2)[C@H]1O5 [naltrexone, Naltrexone]",serum triglycerides after resuming LDN,"[2]; 3.0 mg qhs added to ARV, 12 months, from 620",140
same,"reduction of ""buffalo hump""","[2]; 3 mg qhs added to ARV, nine months",about 50%
same,serum cholesterol after resuming naltrexone,[2]; 3 mg qhs added to ARV,190
same,serum cholesterol after resuming naltrexone,"[2]; 3 mg qhs added to ARV, listed as LDN",220
same,"other physical signs (subcutaneous tissue, breast size)",[2]; [7],returned
same,waist size outcome,[2]; [7],gradually reduced to its former size; also recorded: returned to their previous normal state
same,"other physical signs (subcutaneous tissue, breast size)",[2]; [8],about one-half
same,waist size outcome,[2]; [8],partially cleared by about one-half
same,decrease in waist size,"[2]; 4.5 mg qhs added to ARV, eight weeks",4 ″
same,insulin need,"[2]; 4.5 mg qhs added to ARV, four weeks, from 90 units",20 units per day
same,waist size,"[2]; 4.5 mg qhs added to ARV, three months, from 44″",40 ″
same,"""buffalo hump"" outcome","[2]; 3.0-4.5 mg qhs added to ARV, single cases",completely disappeared; also recorded: shrank and eventually disappeared
same,signs of lipodystrophy overall,"[2]; 3.0-4.5 mg qhs added to ARV, single cases, about eight months, listed as LDN",gradually disappeared; also recorded: complete reversal; also recorded: gradual clearing in the residual signs
same,"""buffalo hump"" outcome","[2]; 3.0-4.5 mg qhs added to ARV, single cases, listed as LDN",about one-half; also recorded: largely disappeared
same,patients with sleep disturbance lasting more than two or three days,[3]; 4.5 mg. dosage per day,~3%
same,side effects or toxicity,[3]; low dose levels,minimal side effects or evidence of toxicity
same,effect on the patient's HIV condition,[4],stabilizing effect
Cc1c(O)cccc1C(=O)N[C@@H](CSc1ccccc1)[C@H](O)CN1C[C@H]2CCCC[C@H]2C[C@H]1C(=O)NC(C)(C)C [nelfinavir],side effect associated with the drug,[1],persistent diarrhea
same,change in viral levels after substitution of indinavir,[5],did not result in any appreciable change in viral levels
Cc1ccnc2c1NC(=O)c1cccnc1N2C1CC1 [nevirapine],patients developing body-wide allergic rashes with hives and itching,[1],Seven
"Cc1cn([C@H]2C=C[C@@H](CO)O2)c(=O)[nH]c1=O [zerit, stavudine]",rate or risk of lipodystrophy,[6],at least 40%
